tested on: Aβ42 production; test: Quantification of Aβ peptide in culture of neurons from rat fetus brain (Aβ ELISA); type: cell-based; settings: Neuron, 72 h; rat primary neuronal culture (cerebral cortex, embryonic day 18 Wistar rats); medium collected three days after addition of compound; Aβx-42 ELISA; read-out: Activity for reducing Aβ42 production IC50
Method: Quantification of Aβ Peptide in Culture of Neurons from Rat Fetus Brain
(1) Rat Primary Neuronal Culture
Primary neuronal cultures were prepared from the cerebral cortex of embryonic day 18 Wistar rats (Charles River Japan, Yokohama, Japan). Specifically, the embryos were aseptically removed from pregnant rats under ether anesthesia. The brain was isolated from the embryo and immersed in an ice-cold L-15 medium (Invitrogen Corp. Cat #11415-064, Carlsbad, Calif., USA, or SIGMA L1518, for example). The cerebral cortex was collected from the isolated brain under a stereoscopic microscope. The cerebral cortex fragments collected were enzymatically treated in an enzyme solution containing 0.25% trypsin (Invitrogen Corp. Cat #15050-065, Carlsbad, Calif., USA) and 0.01% DNase (Sigma D5025, St. Louis, Mo., USA) at 37° C. for 30 minutes to disperse the cells. Here, the enzymatic reaction was stopped by adding inactivated horse serum to the solution. The enzymatically treated solution was centrifuged at 1,500 rpm for five minutes to remove the supernatant. 5 to 10 ml of a medium was added to the resulting cell mass. Neurobasal medium (Invitrogen Corp. Cat #21103-049, Carlsbad, Calif., USA) supplemented with 2% B27 supplement (Invitrogen Corp. Cat #17504-044, Carlsbad, Calif., USA), 25 μM 2-mercaptoethanol (2-ME, WAKO Cat #139-06861, Osaka, Japan), 0.5 mM L-glutamine (Invitrogen Corp. Cat #25030-081, Carlsbad, Calif., USA), and Antibiotics-Antimycotics (Invitrogen Corp. Cat #15240-062, Carlsbad, Calif., USA) was used as the medium (Neurobasal/B27/2-ME). However, the above Neurobasal medium not supplemented with 2-ME (Neurobasal/B27) was used for the assay. The cells were redispersed by mild pipetting of the cell mass to which the medium was added. The cell dispersion was filtered through a 40-μm nylon mesh (Cell Strainer, Cat #35-2340, Becton Dickinson Labware, Franklin Lakes, N.J., USA) to remove the remaining cell mass, and thus a neuronal cell suspension was obtained. The neuronal cell suspension was diluted with the medium and then plated in a volume of 100 μl/well at an initial cell density of 5×10^5 cells/cm^2 in a 96-well polystyrene culture plate pre-coated with poly-L or D-lysine (Falcon Cat #35-3075, Becton Dickinson Labware, Franklin Lakes, N.J., USA coated with poly-L-lysine using the method shown below, or BIOCOAT™ cell environments Poly-D-lysine cell ware 96-well plate, Cat #35-6461, Becton Dickinson Labware, Franklin Lakes, N.J., USA). Poly-L-lysine coating was carried out as follows. 100 μg/ml of a poly-L-lysine (SIGMA P2636, St. Louis, Mo., USA) solution was aseptically prepared with a 0.15 M borate buffer (pH 8.5). 100 μl/well of the solution was added to the 96-well polystyrene culture plate and incubated at room temperature for one or more hours or at 4° C. overnight or longer. The coated 96-well polystyrene culture plate was washed with sterile water four or more times, and then dried or rinsed with, for example, sterile PBS or medium, and used for cell plating. The plated cells were cultured in the culture plate at 37° C. in 5% […]-95% air for one day. Then, the total amount of the medium was replaced with a fresh Neurobasal™/B27/2-ME medium, and then the cells were cultured for further three days.
The drug was added to the culture plate on Day 4 of culture as follows. The total amount of the medium was removed from the wells, and 180 μl/well of Neurobasal medium not containing 2-ME and containing 2% B-27 (Neurobasal/B27) was added thereto. A solution of the test compound in dimethyl sulfoxide (hereinafter abbreviated as DMSO) was diluted with Neurobasal/B27 so that the initial concentration was at 10-fold of the final concentration. 20 μl/well of the dilution was added to and sufficiently mixed with the medium. The final DMSO concentration was 1% or less. Only DMSO was added to the control group.
The cells were cultured for three days after addition of the compound, and the total amount of the medium was collected. […]

Compound	IC50 [nM]
COc1cc(/C=C2\OC[C@H]3CCC[C@@H](c4cc(F)c(F)c(F)c4)N3C2=O)ccc1-n1cnc(C)c1 [Example 40]	100
Cc1cn(-c2ccc(/C=C3\O[C@@H](C)CN([C@H](c4cc(F)c(F)c(F)c4)[C@@H](C)O)C3=O)cc2F)cn1 [Example 74, (Z)-(S)-2-[1-[3-fluoro-4-(4-methyl-1H-imidazol-1-yl)phenyl]methylidene]-4-[(1R,2R)-2-hydroxy-1-(3,4,5-trifluorophenyl)propyl]-6-methylmorpholin-3-one]	140
COc1cc(/C=C2\O[C@@H](C)CN([C@@H](C)c3ccnc(F)c3F)C2=O)ccc1-n1cnc(C)c1 [Example 24, (Z)-(S)-4-[(S)-1-(2,3-difluoropyridin-4-yl)ethyl]-2-[1-[3-methoxy-4-(4-methyl-1H-imidazol-1-yl)phenyl]methylidene]-6-methylmorpholin-3-one]	36
COc1cc(/C=C2\O[C@@H](C)CN([C@H](C)c3ccnc(F)c3F)C2=O)ccc1-n1cnc(C)c1 [Example 25, (Z)-(S)-4-[(R)-1-(2,3-difluoropyridin-4-yl)ethyl]-2-[1-[3-methoxy-4-(4-methyl-1H-imidazol-1-yl)phenyl]methylidene]-6-methylmorpholin-3-one]	141
Cc1cn(-c2ccc(/C=C3\O[C@@H](C)CN([C@H](c4ccc(F)c(F)c4)[C@@H](C)O)C3=O)cc2F)cn1 [Example 75, (Z)-(S)-4-[(1R,2R)-1-(3,4-difluorophenyl)-2-hydroxypropyl]-2-[1-[3-fluoro-4-(4-methyl-1H-imidazol-1-yl)phenyl]methylidene]-6-methylmorpholin-3-one]	146
COc1cc(/C=C2\O[C@@H](C)CN([C@@H](C)c3ccc(F)nc3F)C2=O)ccc1-n1cnc(C)c1 [Example 22, (Z)-(S)-4-[(S)-1-(2,6-difluoropyridin-3-yl)ethyl]-2-[1-[3-methoxy-4-(4-methyl-1H-imidazol-1-yl)phenyl]methylidene]-6-methylmorpholin-3-one]	30
COc1cc(/C=C2\OC[C@H]3CCC[C@@H](c4ccc(F)c(F)c4)N3C2=O)ccc1-n1cnc(C)c1 [Example 41]	141
Cc1cn(-c2ccc(/C=C3\OC(C)(C)CN([C@H](c4cc(F)c(F)c(F)c4)[C@@H](C)O)C3=O)cc2F)cn1 [Example 77, (Z)-2-[1-[3-fluoro-4-(4-methyl-1H-imidazol-1-yl)phenyl]methylidene]-4-[(1R,2R)-2-hydroxy-1-(3,4,5-trifluorophenyl)propyl]-6,6-dimethylmorpholin-3-one]	141
COc1cc(/C=C2\OCCN(Cc3ccc(F)c(F)c3F)C2=O)ccc1-n1cnc(C)c1 [Example 2, (Z)-2-[1-[3-methoxy-4-(4-methyl-1H-imidazol-1-yl)phenyl]methylidene]-4-(2,3,4-trifluorobenzyl)morpholin-3-one]	187
COc1cc(/C=C2\OC(C)(C)CN([C@@H](C)c3ccc(F)nc3F)C2=O)ccc1-n1cnc(C)c1 [Example 55, (Z)-4-[(S)-1-(2,6-difluoropyridin-3-yl)ethyl]-2-[1-[3-methoxy-4-(4-methyl-1H-imidazol-1-yl)phenyl]methylidene]-6,6-dimethylmorpholin-3-one]	111
COc1cc(/C=C2\O[C@@H](C)CN(Cc3cc(F)c(F)c(F)c3)C2=O)ccc1-n1cnc(C)c1 [Example 3, (Z)-(S)-2-[1-[3-methoxy-4-(4-methyl-1H-imidazol-1-yl)phenyl]methylidene]-6-methyl-4-(3,4,5-trifluorobenzyl)morpholin-3-one]	41
COc1cc(/C=C2\OC(C)(C)CN([C@@H](C)c3ccc(F)cc3)C2=O)ccc1-n1cnc(C)c1 [Example 7, (Z)-4-[(S)-1-(4-fluorophenyl)ethyl]-2-[1-[3-methoxy-4-(4-methyl-1H-imidazol-1-yl)phenyl]methylidene]-6,6-dimethylmorpholin-3-one]	76
COc1cc(/C=C2\OCCN([C@@H](C)c3cc(F)c(F)c(F)c3)C2=O)ccc1-n1cnc(C)c1 [Example 10, (Z)-2-[1-[3-methoxy-4-(4-methyl-1H-imidazol-1-yl)phenyl]methylidene]-4-[(S)-1-(3,4,5-trifluorophenyl)ethyl]morpholin-3-one]	84
COc1cc(/C=C2\OC(C)(C)CN([C@@H](C)c3ccc(Cl)cn3)C2=O)ccc1-n1cnc(C)c1 [Example 60, (Z)-4-[(S)-1-(5-chloropyridin-2-yl)ethyl]-2-[1-[3-methoxy-4-(4-methyl-1H-imidazol-1-yl)phenyl]methylidene]-6,6-dimethylmorpholin-3-one]	96
COc1cc(/C=C2\O[C@H](C)CN(Cc3ccc(F)c(F)c3F)C2=O)ccc1-n1cnc(C)c1 [Example 6, (Z)-(R)-2-[1-[3-methoxy-4-(4-methyl-1H-imidazol-1-yl)phenyl]methylidene]-6-methyl-4-(2,3,4-trifluorobenzyl)morpholin-3-one]	156
COc1cc(/C=C2\O[C@@H](C)CN(C3(c4ccc(F)cc4)CC3)C2=O)ccc1-n1cnc(C)c1 [Example 39, (Z)-(6S)-4-[1-(4-fluorophenyl)cyclopropyl]-2-[1-[3-methoxy-4-(4-methyl-1H-imidazol-1-yl)phenyl]methylidene]-6-methylmorpholin-3-one]	130
COc1cc(/C=C2\OC(C)(C)CN([C@H](c3ccc(F)cc3)[C@@H](C)O)C2=O)ccc1-n1cnc(C)c1 [Example 33, (Z)-4-[(1R,2R)-1-(4-fluorophenyl)-2-hydroxypropyl]-2-[1-[3-methoxy-4-(4-methyl-1H-imidazol-1-yl)phenyl]methylidene]-6,6-dimethylmorpholin-3-one]	63
COc1cc(/C=C2\O[C@@H](C)CN([C@H](C)c3ccc(Cl)cn3)C2=O)ccc1-n1cnc(C)c1 [Example 21, (Z)-(S)-4-[(R)-1-(5-chloropyridin-2-yl)ethyl]-2-[1-[3-methoxy-4-(4-methyl-1H-imidazol-1-yl)phenyl]methylidene]-6-methylmorpholin-3-one]	195
COc1cc(/C=C2\OCCN([C@H](c3cc(F)c(F)c(F)c3)[C@@H](C)O)C2=O)ccc1-n1cnc(C)c1 [Example 30, (Z)-4-[(1R,2R)-2-hydroxy-1-(3,4,5-trifluorophenyl)propyl]-2-[1-[3-methoxy-4-(4-methyl-1H-imidazol-1-yl)phenyl]methylidene]morpholin-3-one]	54
COc1cc(/C=C2\OCCN(Cc3cc(F)c(F)c(F)c3)C2=O)ccc1-n1cnc(C)c1 [Example 1, (Z)-2-[1-[3-methoxy-4-(4-methyl-1H-imidazol-1-yl)phenyl]methylidene]-4-(3,4,5-trifluorobenzyl)morpholin-3-one]	77
COc1cc(/C=C2\OC(C)(C)CN([C@H]3CCOc4ccccc43)C2=O)ccc1-n1cnc(C)c1 [Example 12, (Z)-4-[(S)-chroman-4-yl]-2-[1-[3-methoxy-4-(4-methyl-1H-imidazol-1-yl)phenyl]methylidene]-6,6-dimethylmorpholin-3-one]	101
COc1cc(/C=C2\O[C@H](C)CN([C@@H](C)c3ccc(F)cc3)C2=O)ccc1-n1cnc(C)c1 [Example 8, (Z)-(R)-4-[(S)-1-(4-fluorophenyl)ethyl]-2-[1-[3-methoxy-4-(4-methyl-1H-imidazol-1-yl)phenyl]methylidene]-6-methylmorpholin-3-one]	113

From patent US7618960B2, “Morpholine type cinnamide compound” (Eisai R&D Management Co., Ltd., priority 2005, dated 2009)
